# Test results reported in PubChem BioAssay AID1963980 (Molecular Pharmacology Branch, DTP, NCI, 2024).
# pIC50: −log10 of the molar value.
# Test system: 475296-252-R-J1-PDC spheroid viability
# Experiment: Anticancer human tumor 475296-252-R-J1-PDC patient-derived rectal carcinoma cell line growth inhibition [PI3K]
# Conditions: spheroids with HUVEC and MSC; for pIC50: curve of first compound; for viability, T/C: stronger effect = lower value
# In short: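 Tumor cells were combined with HUVEC and MSCs into spheroids, then dosed with PI3K-inhibitor combinations over half-log ranges capped near clinical Cmax or 10 microM.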
# [1] = second compound 0.0316 µM, first compound 0.0316 µM
# [2] = second compound 0.0316 µM, first compound 0.1 µM
# [3] = second compound 0.0316 µM, first compound 0.316 µM
# [4] = second compound 0.0316 µM, first compound 1 µM
# [5] = second compound 0.0316 µM, first compound 3.16 µM
# [6] = second compound 0.0316 µM, first compound 10 µM
# [7] = second compound 0.1 µM, first compound 0.0316 µM
# [8] = second compound 0.1 µM, first compound 0.1 µM
# [9] = second compound 0.1 µM, first compound 0.316 µM
# [10] = second compound 0.1 µM, first compound 1 µM
# [11] = second compound 0.1 µM, first compound 3.16 µM
# [12] = second compound 0.1 µM, first compound 10 µM
# [13] = second compound 0.316 µM, first compound 0.0316 µM
# [14] = second compound 0.316 µM, first compound 0.1 µM
# [15] = second compound 0.316 µM, first compound 0.316 µM
# [16] = second compound 0.316 µM, first compound 1 µM
# [17] = second compound 0.316 µM, first compound 3.16 µM
# [18] = second compound 0.316 µM, first compound 10 µM
# [19] = second compound 1 µM, first compound 0.0316 µM
# [20] = second compound 1 µM, first compound 0.1 µM
# [21] = second compound 1 µM, first compound 0.316 µM
# [22] = second compound 1 µM, first compound 1 µM
# [23] = second compound 1 µM, first compound 3.16 µM
# [24] = second compound 1 µM, first compound 10 µM
# [25] = second compound 3.16 µM, first compound 0.0316 µM
# [26] = second compound 3.16 µM, first compound 0.1 µM
# [27] = second compound 3.16 µM, first compound 0.316 µM
# [28] = second compound 3.16 µM, first compound 1 µM
# [29] = second compound 3.16 µM, first compound 3.16 µM
# [30] = second compound 3.16 µM, first compound 10 µM
# [31] = second compound 10 µM, first compound 0.0316 µM
# [32] = second compound 10 µM, first compound 0.1 µM
# [33] = second compound 10 µM, first compound 0.316 µM
# [34] = second compound 10 µM, first compound 1 µM
# [35] = second compound 10 µM, first compound 3.16 µM
# [36] = second compound 10 µM, first compound 10 µM
# 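Also: spheroids exposed to agents for seven days before readout.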
smiles,measurement,setting,value
Cn1ncc(Cl)c1-c1cc(C(=O)NC(CN)Cc2cccc(F)c2)sc1Cl (stereo unspecified) + Cc1nc(NC(=O)N2CCCC2C(N)=O)sc1-c1ccnc(C(C)(C)C(F)(F)F)c1,pIC50,second compound 0.0316 µM,< 5.00
same,pIC50,second compound 0.1 µM,< 5.00
same,pIC50,second compound 0.316 µM,< 5.00
same,pIC50,second compound 1 µM,< 5.00
same,pIC50,second compound 3.16 µM,5.10
same,pIC50,second compound 10 µM,5.38
same,"viability, T/C",[1],91.1%
same,"viability, T/C",[2],74.3%
same,"viability, T/C",[3],75.3%
same,"viability, T/C",[4],67.1%
same,"viability, T/C",[5],71.3%
same,"viability, T/C",[6],67.4%
same,"viability, T/C",[7],96.9%
same,"viability, T/C",[8],85.2%
same,"viability, T/C",[9],66.8%
same,"viability, T/C",[10],54%
same,"viability, T/C",[11],64.4%
same,"viability, T/C",[12],67.4%
same,"viability, T/C",[13],77.6%
same,"viability, T/C",[14],83.5%
same,"viability, T/C",[15],73.4%
same,"viability, T/C",[16],55.9%
same,"viability, T/C",[17],67.3%
same,"viability, T/C",[18],54%
same,"viability, T/C",[19],84.5%
same,"viability, T/C",[20],85.4%
same,"viability, T/C",[21],78%
same,"viability, T/C",[22],58.5%
same,"viability, T/C",[23],62.8%
same,"viability, T/C",[24],51.2%
same,"viability, T/C",[25],83.1%
same,"viability, T/C",[26],78.8%
same,"viability, T/C",[27],84.2%
same,"viability, T/C",[28],67%
same,"viability, T/C",[29],61.5%
same,"viability, T/C",[30],47.2%
same,"viability, T/C",[31],84.8%
same,"viability, T/C",[32],78.8%
same,"viability, T/C",[33],81.7%
same,"viability, T/C",[34],69.3%
same,"viability, T/C",[35],57.6%
same,"viability, T/C",[36],28.5%
C[C@@H](NC(=O)c1ncnc(N)c1Cl)c1ncc(C(=O)Nc2cc(C(F)(F)F)c(Cl)cn2)s1 + CC(Nc1ncnc2nc[nH]c12)c1cc2cccc(Cl)c2c(=O)n1-c1ccccc1,pIC50,second compound 0.0316 µM,< 5.00
same,pIC50,second compound 0.1 µM,< 5.00
same,pIC50,second compound 0.316 µM,< 5.00
same,pIC50,second compound 1 µM,< 5.00
same,pIC50,second compound 3.16 µM,< 5.00
same,pIC50,second compound 10 µM,< 5.00
same,"viability, T/C",[1],77.6%
same,"viability, T/C",[2],90.2%
same,"viability, T/C",[3],109%
same,"viability, T/C",[4],114%
same,"viability, T/C",[5],102%
same,"viability, T/C",[6],91.5%
same,"viability, T/C",[7],91%
same,"viability, T/C",[8],92.5%
same,"viability, T/C",[9],96.7%
same,"viability, T/C",[10],109%
same,"viability, T/C",[11],115%
same,"viability, T/C",[12],92%
same,"viability, T/C",[13],89.7%
same,"viability, T/C",[14],86.4%
same,"viability, T/C",[15],88.2%
same,"viability, T/C",[16],96.7%
same,"viability, T/C",[17],108%
same,"viability, T/C",[18],92.2%
same,"viability, T/C",[19],94.4%
same,"viability, T/C",[20],90.5%
same,"viability, T/C",[21],91%
same,"viability, T/C",[22],112%
same,"viability, T/C",[23],106%
same,"viability, T/C",[24],75.5%
same,"viability, T/C",[25],89.3%
same,"viability, T/C",[26],94.8%
same,"viability, T/C",[27],82%
same,"viability, T/C",[28],102%
same,"viability, T/C",[29],110%
same,"viability, T/C",[30],67.4%
same,"viability, T/C",[31],87.7%
same,"viability, T/C",[32],84.8%
same,"viability, T/C",[33],93.5%
same,"viability, T/C",[34],92.8%
same,"viability, T/C",[35],87.1%
same,"viability, T/C",[36],63.4%
CC1(C)CCC(CN2CCN(c3ccc(C(=O)NS(=O)(=O)c4ccc(NCC5CCOCC5)c([N+](=O)[O-])c4)c(Oc4cnc5[nH]ccc5c4)c3)CC2)=C(c2ccc(Cl)cc2)C1 + Cc1nc(NC(=O)N2CCCC2C(N)=O)sc1-c1ccnc(C(C)(C)C(F)(F)F)c1,pIC50,second compound 0.0316 µM,< 5.00
same,pIC50,second compound 0.1 µM,< 5.00
same,pIC50,second compound 0.316 µM,< 5.00
same,pIC50,second compound 1 µM,< 5.00
same,pIC50,second compound 3.16 µM,< 5.00
same,pIC50,second compound 10 µM,< 5.00
same,"viability, T/C",[1],107%
same,"viability, T/C",[2],90.1%
same,"viability, T/C",[3],95.3%
same,"viability, T/C",[4],87.2%
same,"viability, T/C",[5],95.7%
same,"viability, T/C",[6],62.5%
same,"viability, T/C",[7],99.3%
same,"viability, T/C",[8],85.6%
same,"viability, T/C",[9],98.9%
same,"viability, T/C",[10],93%
same,"viability, T/C",[11],94.2%
same,"viability, T/C",[12],63.5%
same,"viability, T/C",[13],99.7%
same,"viability, T/C",[14],97.5%
same,"viability, T/C",[15],89.9%
same,"viability, T/C",[16],84.5%
same,"viability, T/C",[17],84.2%
same,"viability, T/C",[18],69%
same,"viability, T/C",[19],90.8%
same,"viability, T/C",[20],93.2%
same,"viability, T/C",[21],97.1%
same,"viability, T/C",[22],93.3%
same,"viability, T/C",[23],88.3%
same,"viability, T/C",[24],73.3%
same,"viability, T/C",[25],83.4%
same,"viability, T/C",[26],82%
same,"viability, T/C",[27],95.5%
same,"viability, T/C",[28],90.5%
same,"viability, T/C",[29],87.5%
same,"viability, T/C",[30],63.3%
same,"viability, T/C",[31],86.5%
same,"viability, T/C",[32],87.6%
same,"viability, T/C",[33],89.4%
same,"viability, T/C",[34],89%
same,"viability, T/C",[35],87.3%
same,"viability, T/C",[36],56.7%
